# Source: patent US8318184B2, “MGLU2 agonists” (Eli Lilly and Company, priority 2009, dated 2012)
# Experiments:
# Sprague-Dawley rats [1] = test: Reversal of Phencyclidine (PCP)-Induced Hyperlocomotor Activity in Rats; type: in vivo; conditions: Rattus norvegicus, p.o., overnight fasted, 4 hours prior to 5 mg/kg PCP
# Text: Administration of NMDA receptor antagonists, such as ketamine or phencyclidine (PCP), produces psychotomimetic-like effects in humans that are similar to those symptoms observed in patients with schizophrenia.
# Motor activity is monitored by placing individual male, Sprague-Dawley (Harlan, Indianapolis, Ind.) rats in transparent, plastic shoe-box cages of the dimensions 45×25×20 cm, with 1 cm depth of wood chips as bedding, and a metal grill on top of the cage. Motor monitors (Kinder Scientific) consist of a rectangular rack of 12 photobeams arranged in an 8×4 formation, (or a high density grouping of 22 in a 15×7 pattern) at a height of 5 cm, with a second rack (for measuring rearing behaviors) at a height of 15 cm. The shoe box cage is placed inside of these racks, with the racks on a 3 foot high tabletop in an isolated room. A compound of the present invention is dosed (intraperitoneal route (i.p.), non-prodrug) within a range of 0.3-10 mg/kg, 30 minutes prior to a 5 mg/kg challenge dose of phencyclidine (PCP). A compound of the present invention is dosed (oral route, prodrug) within a range of 0.3-30 mg/kg, in overnight fasted rats, 4 hours prior to a 5 mg/kg challenge dose of PCP. On the test day, rats are placed in the test cage and allowed to acclimate for 30 minutes prior to PCP challenge; rats are monitored for an additional 60 minutes following PCP administration.
# Data analysis and ED50 calculations are conducted using GraphPad Prism (San Diego, Calif. USA). Power analyses have determined that 8-10 rats per group are needed to have appropriate statistical power for detecting treatment differences (power=0.8). A one-way analysis of variance (ANOVA) with a post-hoc Dunnett's multiple comparison test is conducted on the total 60 minute locomotor activity. ED50 calculations are performed using non-linear regression curve fitting on percent reversal transformed data for each dose.
# [2] = 1 h, 10 µM, pH 7.4
# Method: Frozen human duodenum intestinal homogenates (1:2 tissue:buffer ratio using 100 mM Tris Phosphate buffer, pH 7.4) are obtained from Celsius In Vitro Technologies (Baltimore, Md.) that were both phenylmethylsulphonylfluoride (PMSF) and EDTA free.
# Each lot of human duodenum is obtained from a single donor and the intestine is scraped and the sections are frozen separate. All original tissue collections are performed at 4° C. and immediately frozen at −70° C. Human intestinal homogenates are thawed and diluted to a final protein concentration of 0.5 mg/mL in 100 mM PBS buffer, pH 7.4 immediately prior to the incubations.
# Incubations are conducted in 96-well plates and all prodrug compounds are run in duplicate on each day. Stock prodrug compound solutions are prepared in water at a concentration of 1 mM. A 200 μL aliquot of 0.5 mg/mL intestinal homogenate and 196 μL of 100 mM PBS buffer are placed in a 96-well plate in a 37° C. water bath. Using a 96-well pipettor, 4 μL of the 1 mM prodrug compound solution is transferred into the homogenate. Immediately after addition of the prodrug compound (time zero) and after 1 hour incubation, 50 μL samples of the incubation mixture are removed using an automated disposable simultaneous 96 well pipettor and added directly to 200 μL of methanol quench solution containing 100 ng/mL of Internal Standard. The samples are then centrifuged at 3500 rpm for 5 minutes at 10° C. The supernatant (200 μL) is transferred to a final 96 well PCR plate and sealed for analysis by LC/MS/MS.
# Concentrations of hydrolyzed compounds of the present invention in the incubation mixtures are determined using LC/MS/MS detection on a Sciex API 4000 quadrapole mass spectrometer with Analyst version 1.4.2, TurboIonSpray, positive ionization, and Selected Reaction Monitoring (SRM). A Waters Atlantis® T3 (20×2.1 mm, 5 μM) HPLC column is used at ambient temperature with a flow rate of 1.0 mL/min and a mobile phase gradient from 0.1% mobile phase A to 99% mobile phase A. Mobile phase A is 1000:5 water:heptafluorobuteric acid and mobile phase B is 1:1 methanol:glacial acetic acid.
# Concentrations of hydrolyzed compounds of the present invention in the intestinal incubation mixtures are determined from standard curves prepared by replicate two-fold dilution starting at 10 μM in 100 mM PBS pH 7.4 and subsequently quenched with methanol-internal standard solution identical to the samples. Averages and standard deviations are calculated using Microsoft® Office Excel® 2007. Amount of hydrolysis is determined as a molar percentage of compound formed relative to prodrug compound concentration added. […] Final values are then normalized relative to the formation of Internal Compound Drug A.
# hPepT1 = biological target: T1, hPepT1 (Homo sapiens, UniProt P46059); test: In Vitro PepT1 GlySar Inhibition Screen and IC50 Determination; type: cell-based; conditions: for inhibition at 5000 µM: 5 mM, pH 6.0, PepT1 transiently transfected HeLa cells, read-out: hPepT1 [3H]Gly-Sar uptake inhibition at 5 mM
# T1 construct: expressed in transfected cells; host or cells: HeLa cells (ATCC), transient transfection with FuGene6
# T1 sequence (P46059 1-708): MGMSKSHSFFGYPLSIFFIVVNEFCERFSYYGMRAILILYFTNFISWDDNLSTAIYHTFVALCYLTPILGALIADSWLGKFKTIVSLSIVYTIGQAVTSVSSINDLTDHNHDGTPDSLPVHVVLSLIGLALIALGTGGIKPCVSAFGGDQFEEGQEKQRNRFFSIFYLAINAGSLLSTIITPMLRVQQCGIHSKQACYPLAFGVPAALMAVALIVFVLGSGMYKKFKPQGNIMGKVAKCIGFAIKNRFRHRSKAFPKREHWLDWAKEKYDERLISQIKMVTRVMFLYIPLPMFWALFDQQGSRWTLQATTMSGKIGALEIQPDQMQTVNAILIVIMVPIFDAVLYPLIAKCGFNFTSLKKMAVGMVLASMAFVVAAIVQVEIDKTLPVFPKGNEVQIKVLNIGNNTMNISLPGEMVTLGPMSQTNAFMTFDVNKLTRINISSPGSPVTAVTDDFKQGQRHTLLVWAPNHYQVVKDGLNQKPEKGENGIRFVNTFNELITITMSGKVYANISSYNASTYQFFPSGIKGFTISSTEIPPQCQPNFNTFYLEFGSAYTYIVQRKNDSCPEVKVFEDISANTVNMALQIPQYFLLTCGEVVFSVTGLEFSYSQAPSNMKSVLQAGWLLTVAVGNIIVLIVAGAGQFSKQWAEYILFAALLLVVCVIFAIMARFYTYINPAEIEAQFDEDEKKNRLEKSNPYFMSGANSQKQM
# Method: PepT1 assays are established to examine the ability of the amino acid prodrug compounds to interact with the intestinal absorption transporter PepT1.
# HeLa cells, […], (American Type Culture Collection) are grown in Hyclone Medium (Invitrogen, Cat# SH30243) containing 10% fetal bovine serum (FBS), 0.1 mM non essential amino acids (NEAA), and 100 units/mL penicillin with 100 μg/mL streptomycin at 37° C. in a 5% CO2 humidified atmosphere. The cell line is used for up to 40 passages and then discarded. Frozen cells in 1 ml vials are thawed in water bath for 1-2 minutes and added to 5 mL of cell medium at 37° C. Each of the T-flasks is provided with 8.5 mL of the fresh medium and 1.5 mL of the cell stock. Cells are passaged twice during a week. This is achieved by rinsing the flasks with 10 mL of phosphate buffered saline-ethylene diaminetetra acetic acid (PBS-EDTA), adding 2 mL of trypsin for 2-5 minutes, to detach the cells, and adding 8 mL of fresh medium to inhibit further activity of trypsin. Each new flask receives a combination of 8.5 mL of fresh medium and 1.5 mL of cell stock, in order to obtain 1:6 cell dilution. Cells are incubated at 37° C., until ready for the uptake study.
# Cells that are 70-80% confluent in the T-flasks are plated 1 day prior to the transfection procedure. The flask with the cell stock is treated with PBS-EDTA and trypsin to detach the cells, and transfection medium is used from this point. Transfection medium consists of Dulbecco's Modified Eagle Medium (DMEM)+NEAA. To each well, 0.5 mL of the cell mixture is added (1.3×10^5 is the desired cell concentration) and the cells are incubated at 37° C. overnight. Twenty four hours before the assay, cells are transfected with PEPT1. Transfection mixture is prepared by mixing 600 μL of serum free transfection medium, 18 μL of FuGene6 (Roche Diagnostics), and 11 μg of the PepT1 DNA. The transfection reagent-DNA complex is incubated for 20 minutes and 24 μL of the reagent-DNA complex is added to each well.
# J. Pharm. Exper Ther. 310:437-445). […] Uptake media consists of 140 mM NaCl, 5.4 mM KCl, 1.8 mM CaCl2, 0.8 mM MgSO4, 5 mM Glucose, 25 mM tris(hydroxymethyl)aminomethane buffer (TRIS). The solution is then brought to pH 6.0 using 2-(N-morpholino)ethanesulfonic acid. The incubation volume is 500 μL and is performed at room temperature for 3 minutes. To stop the uptake at the conclusion of the incubation time, the uptake media is aspirated off of the cell monolayer and 500 μL of ice cold PBS added to the well. The cells are washed 3 times with 500 μL of room temperature PBS without Ca^+2 and Mg^+2. The cells are then lysed with 300 μL of 1% Triton X100 H2O solution. […] A no inhibitor control is established and the percent inhibition of each prodrug is calculated with respect to this control.
# The incubation and sampling procedures are exactly the same as the PepT1 screen described above. […]
# NIH-Swiss mice = test: Forced Swim Test in mice; type: in vivo, mouse; conditions: positive control over multiple studies
# Method: (§1) In this assay, mechanisms with purported antidepressant-like activity decrease immobility in a brief inescapable forced swim episode.
# The forced-swim test is conducted with both mice (male, NIH-Swiss mice, 20-25 g, Harlan Sprague-Dawley, Indianapolis, Ind.) and rats (male, Sprague-Dawley rats, 250-350 g, Harlan Sprague-Dawley, Indianapolis, Ind.). Mice are placed in clear plastic cylinders (diameter 10 cm; height: 25 cm) filled to 6 cm with 22-25° C. water for six min. The duration of immobility is recorded during the last 4 min of a six-minute trial. Rats are treated similarly, albeit in clear plastic cylinders of larger dimensions (diameter: 18 cm; height: 40 cm) filled with water (22-25° C.) to a depth of 16 cm for 15 min. Additionally, mice receive a single forced swim exposure; rats receive two, 5-min sessions separated by 24 hours (data is recorded only on Day 2). […] Imipramine is used as a positive control for these studies. […] Compounds are in a clear solution. The amount of time spent immobile (defined as movements only necessary to keep the subject's head above water) is the dependent measure and recorded by an observer blinded to the drug treatment of the subjects. Data are analyzed by post-hoc Dunnett's test with alpha level set at 0.05. The mouse version of the forced swim test is most commonly used.
# Sprague-Dawley rats [3] = test: Forced Swim Test in rats; type: in vivo, rat; conditions: 30 mg/kg
# Method: as §1
# The forced-swim test is conducted with both mice (male, NIH-Swiss mice, 20-25 g, Harlan Sprague-Dawley, Indianapolis, Ind.) and rats (male, Sprague-Dawley rats, 250-350 g, Harlan Sprague-Dawley, Indianapolis, Ind.). Mice are placed in clear plastic cylinders (diameter 10 cm; height: 25 cm) filled to 6 cm with 22-25° C. water for six min. The duration of immobility is recorded during the last 4 min of a six-minute trial. Rats are treated similarly, albeit in clear plastic cylinders of larger dimensions (diameter: 18 cm; height: 40 cm) filled with water (22-25° C.) to a depth of 16 cm for 15 min. Additionally, mice receive a single forced swim exposure; rats receive two, 5-min sessions separated by 24 hours (data is recorded only on Day 2). The compound of Example 1 is tested in mice using intraperitoneal dosing (1, 3, or 10 mg/kg), 60 min prior to testing. […] Example 2 is administered 5 min following the first forced swim exposure and 120 min prior to the test session on Day 2. Imipramine is used as a positive control for these studies. Compounds are formulated in a water vehicle, with minimal NaOH being added to Example 1 and Example 2. Compounds are in a clear solution. The amount of time spent immobile (defined as movements only necessary to keep the subject's head above water) is the dependent measure and recorded by an observer blinded to the drug treatment of the subjects. Data are analyzed by post-hoc Dunnett's test with alpha level set at 0.05. The mouse version of the forced swim test is most commonly used. An ED60 value (60% of the amount of immobility relative to vehicle controls) is calculated to estimate potency of the test compounds.
Structure (SMILES),human intestinal hydrolysis relative to Internal Prodrug Compound A [2] [%],inhibition at 5000 µM (hPepT1) [%],further results
"Cl.NCC(=O)N[C@@]1(C(=O)O)C[C@@H](Sc2nnc[nH]2)[C@H]2[C@H](C(=O)O)[C@H]21 [Example 5, (1R,2S,4R,5R,6R)-2-[(2-Aminoacetyl)amino]-4-(4H-1,2,4-triazol-3-ylsulfanyl)bicyclo[3.1.0]hexane-2,6-dicarboxylic acid hydrochloride]",35,44,–
"N[C@@]1(C(=O)OCc2ccccc2)C[C@@H](Sc2nnc[nH]2)[C@H]2[C@H](C(=O)OCc3ccccc3)[C@H]21 [Example 6, Dibenzyl (1R,2S,4R,5R,6R)-2-amino-4-(4H-1,2,4-triazol-3-ylsulfanyl)bicyclo[3.1.0]hexane-2,6-dicarboxylate]",2,–,–
"CN(C)CCCN1c2ccccc2CCc2ccccc21 [imipramine, reference compound]",–,–,"ED60 (NIH-Swiss mice): 8.6 ± 1.2 mg/kg; effect, % of vehicle immobility levels (NIH-Swiss mice): 39±1.2%; immobility as % of vehicle controls (Sprague-Dawley rats [3]): 70%"

# The next lines start with results.
human intestinal hydrolysis relative to Internal Prodrug Compound A [2] [%],inhibition at 5000 µM (hPepT1) [%],Structure (SMILES),further results
53,51,"CSCC[C@H](N)C(=O)N[C@@]1(C(=O)O)C[C@@H](Sc2nnc[nH]2)[C@H]2[C@H](C(=O)O)[C@H]21.Cl [Example 3, (1R,2S,4R,5R,6R)-2-[[(2S)-2-Amino-4-methylsulfanyl-butanoyl]amino]-4-(4H-1,2,4-triazol-3-ylsulfanyl)bicyclo[3.1.0]hexane-2,6-dicarboxylic acid hydrochloride]","ED50 (Sprague-Dawley rats [1]): 5.46 mg/kg; IC50 (hPepT1; 0.0625 to 25 mM, PepT1 transfected HeLa cells, read-out: hPepT1 [3H]Gly-Sar uptake inhibition IC50): 5.36 mM"
45,32,"CC(C)C[C@H](N)C(=O)N[C@@]1(C(=O)O)C[C@@H](Sc2nnc[nH]2)[C@H]2[C@H](C(=O)O)[C@H]21.Cl [Example 4, (1R,2S,4R,5R,6R)-2-[[(2S)-2-Amino-4-methyl-pentanoyl]amino]-4-(4H-1,2,4-triazol-3-ylsulfanyl)bicyclo[3.1.0]hexane-2,6-dicarboxylic acid hydrochloride]",–
